Measured values as given in the supplement of paper PMC10627819.

Assays:
[1] = system: S. aureus DSM 20231; test: Bliss interaction score (quartile over a dose matrix) (fitness difference); higher = more antagonism (negative = synergy)
Method in brief: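 Fitness was defined as normalised growth: OD595 at the start of stationary phase divided by the plate's robust no-drug mean and capped at 1. Single-drug fitness was inferred from combination measurements. The Bliss score is observed fitness minus the product of the single-drug values, summarised by quartiles across technical, biological and donor/recipient replicates.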

[2] = system: S. aureus DSM 20231; test: fitness (endpoint OD595 vs no drug) (fraction); higher = more growth
Method in brief: (§1)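 Fitness was measured as bacterial growth in 384-well plates inoculated at OD595 0.01 (30 µl, or 55 µl for S. pneumoniae). Media were TSB, LB Lennox or CY, at 37 °C. OD595 was read every 30 min for 14 h and background-subtracted against the first reading. Fitness is OD595 at the transition into stationary phase divided by the robust mean of no-drug control wells, capped at 1.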

[3] = system: S. aureus Newman; test: as above
Method in brief: as §1

[4] = system: S. pneumoniae D39V; test: as above
Method in brief: as §1

[5] = first compound 0.0156 µg/mL, partner 0.1875 µg/mL
[6] = first compound 0.0156 µg/mL, partner 0.375 µg/mL
[7] = first compound 0.0156 µg/mL, partner 0.75 µg/mL
[8] = first compound 0.0312 µg/mL, partner 0.1875 µg/mL
[9] = first compound 0.0312 µg/mL, partner 0.375 µg/mL
[10] = first compound 0.0312 µg/mL, partner 0.75 µg/mL
[11] = first compound 0.0625 µg/mL, partner 0.1875 µg/mL
[12] = first compound 0.0625 µg/mL, partner 0.375 µg/mL
[13] = first compound 0.0625 µg/mL, partner 0.75 µg/mL
[14] = first compound 0.0156 µg/mL, partner 85.5 µg/mL
[15] = first compound 0.0156 µg/mL, partner 171 µg/mL
[16] = first compound 0.0156 µg/mL, partner 342 µg/mL
[17] = first compound 0.0312 µg/mL, partner 85.5 µg/mL
[18] = first compound 0.0312 µg/mL, partner 171 µg/mL
[19] = first compound 0.0312 µg/mL, partner 342 µg/mL
[20] = first compound 0.0625 µg/mL, partner 85.5 µg/mL
[21] = first compound 0.0625 µg/mL, partner 171 µg/mL
[22] = first compound 0.0625 µg/mL, partner 342 µg/mL
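For Bliss interaction score (quartile over a dose matrix) in this document: first quartile when negative (synergy) and third quartile when positive (antagonism).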
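For fitness (endpoint OD595 vs no drug) in this document: OD595 on entry to stationary phase over no-drug wells; at most 1.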

CO[C@@]12[C@H](COC(N)=O)C3=C(C(=O)C(C)=C(N)C3=O)N1C[C@@H]1N[C@@H]12 [MitomycinC] + COc1ccc2[nH]c([S+]([O-])Cc3ncc(C)c(OC)c3C)nc2c1 [Omeprazole]
Bliss interaction score [1]: 0.169

CC(C)(O)c1ccccc1CC[C@@H](SCC1(CC(=O)O)CC1)c1cccc(/C=C/c2ccc3ccc(Cl)cc3n2)c1 [Montelukast] + CN[C@@H]1[C@H](O[C@H]2[C@H](O[C@H]3[C@H](O)[C@@H](O)[C@H](N=C(N)N)[C@@H](O)[C@@H]3N=C(N)N)O[C@@H](C)[C@]2(O)C=O)O[C@@H](CO)[C@H](O)[C@H]1O [Streptomycin]
Bliss interaction score [1]: -0.394

CO[C@@]12[C@H](COC(N)=O)C3=C(C(=O)C(C)=C(N)C3=O)N1C[C@@H]1N[C@@H]12 [Mitomycin C] + CN[C@H](CC(C)C)C(=O)N[C@H]1C(=O)N[C@@H](CC(N)=O)C(=O)N[C@H]2C(=O)N[C@H]3C(=O)N[C@H](C(=O)N[C@H](C(=O)O)c4cc(O)cc(O)c4-c4cc3ccc4O)[C@H](O)c3ccc(c(Cl)c3)Oc3cc2cc(c3O[C@@H]2O[C@H](CO)[C@@H](O)[C@H](O)[C@H]2O[C@H]2C[C@](C)(N)[C@H](O)[C@H](C)O2)Oc2ccc(cc2Cl)[C@H]1O [Vancomycin]
fitness [2, 5]: 0.741
fitness [2, 6]: 0.719
fitness [2, 7]: 0.708
fitness [2, 8]: 0.705
fitness [2, 9]: 0.762
fitness [2, 10]: 0.751
fitness [2, 11]: 0.592
fitness [2, 12]: 0.624
fitness [2, 13]: 0.624
fitness [3, 5]: 0.747
fitness [3, 6]: 0.708
fitness [3, 7]: 0.733
fitness [3, 8]: 0.719
fitness [3, 9]: 0.684
fitness [3, 10]: 0.65
fitness [3, 11]: 0.56
fitness [3, 12]: 0.415
fitness [3, 13]: 0.411
fitness ([4]; first compound 0.001075 µg/mL, partner 0.125 µg/mL): 0.928
fitness ([4]; first compound 0.001075 µg/mL, partner 0.25 µg/mL): 0.629
fitness ([4]; first compound 0.001075 µg/mL, partner 0.5 µg/mL): 0.208
fitness ([4]; first compound 0.002 µg/mL, partner 0.03125 µg/mL): 0.951
fitness ([4]; first compound 0.002 µg/mL, partner 0.0625 µg/mL): 0.877
fitness ([4]; first compound 0.002 µg/mL, partner 0.125 µg/mL): 0.745
fitness ([4]; first compound 0.00215 µg/mL, partner 0.125 µg/mL): 0.869
fitness ([4]; first compound 0.00215 µg/mL, partner 0.25 µg/mL): 0.68
fitness ([4]; first compound 0.00215 µg/mL, partner 0.5 µg/mL): 0.202
fitness ([4]; first compound 0.004 µg/mL, partner 0.03125 µg/mL): 0.846
fitness ([4]; first compound 0.004 µg/mL, partner 0.0625 µg/mL): 0.836
fitness ([4]; first compound 0.004 µg/mL, partner 0.125 µg/mL): 0.667
fitness ([4]; first compound 0.0043 µg/mL, partner 0.125 µg/mL): 0.863
fitness ([4]; first compound 0.0043 µg/mL, partner 0.25 µg/mL): 0.592
fitness ([4]; first compound 0.0043 µg/mL, partner 0.5 µg/mL): 0.206
fitness ([4]; first compound 0.008 µg/mL, partner 0.03125 µg/mL): 0.727
fitness ([4]; first compound 0.008 µg/mL, partner 0.0625 µg/mL): 0.732
fitness ([4]; first compound 0.008 µg/mL, partner 0.125 µg/mL): 0.629

CO[C@@]12[C@H](COC(N)=O)C3=C(C(=O)C(C)=C(N)C3=O)N1C[C@@H]1N[C@@H]12 [Mitomycin C] + CCN(CC)CCOC(=O)c1ccc(N)cc1 [Procaine]
fitness [2, 14]: 0.724
fitness [2, 15]: 0.796
fitness [2, 16]: 0.754
fitness [2, 17]: 0.668
fitness [2, 18]: 0.753
fitness [2, 19]: 0.743
fitness [2, 20]: 0.533
fitness [2, 21]: 0.572
fitness [2, 22]: 0.576
fitness [3, 14]: 0.768
fitness [3, 15]: 0.765
fitness [3, 16]: 0.772
fitness [3, 17]: 0.74
fitness [3, 18]: 0.695
fitness [3, 19]: 0.686
fitness [3, 20]: 0.595
fitness [3, 21]: 0.582
fitness [3, 22]: 0.565
fitness ([4]; first compound 0.001075 µg/mL, partner 85.5 µg/mL): 0.966
fitness ([4]; first compound 0.001075 µg/mL, partner 171 µg/mL): 0.929
fitness ([4]; first compound 0.001075 µg/mL, partner 342 µg/mL): 0.937
fitness ([4]; first compound 0.002 µg/mL, partner 85.5 µg/mL, one replicate): 0.923
fitness ([4]; first compound 0.002 µg/mL, partner 171 µg/mL, one replicate): 0.885
fitness ([4]; first compound 0.002 µg/mL, partner 342 µg/mL, one replicate): 0.818
fitness ([4]; first compound 0.00215 µg/mL, partner 85.5 µg/mL): 0.935
fitness ([4]; first compound 0.00215 µg/mL, partner 171 µg/mL): 0.939
fitness ([4]; first compound 0.00215 µg/mL, partner 342 µg/mL): 0.951
fitness ([4]; first compound 0.004 µg/mL, partner 85.5 µg/mL, one replicate): 0.885
fitness ([4]; first compound 0.004 µg/mL, partner 171 µg/mL, one replicate): 0.847
fitness ([4]; first compound 0.004 µg/mL, partner 342 µg/mL, one replicate): 0.812
fitness ([4]; first compound 0.0043 µg/mL, partner 85.5 µg/mL): 0.844
fitness ([4]; first compound 0.0043 µg/mL, partner 171 µg/mL): 0.814
fitness ([4]; first compound 0.0043 µg/mL, partner 342 µg/mL): 0.826
fitness ([4]; first compound 0.008 µg/mL, partner 85.5 µg/mL, one replicate): 0.633
fitness ([4]; first compound 0.008 µg/mL, partner 171 µg/mL, one replicate): 0.641
fitness ([4]; first compound 0.008 µg/mL, partner 342 µg/mL, one replicate): 0.645
